Publication PMC6680932, “Structure–Antioxidant–Antiproliferative Activity Relationships of Natural C7 and C7–C8 Hydroxylated Flavones and Flavanones” (Antioxidants, 2019)
Read-outs that look alike come from different tables or passages of the source.

Experiments:
[1] = FRAP (ferric ion reducing antioxidant power) assay; conditions: 10 min, 593 nm; mean ± SD
Procedure: (§1) The antioxidant capacity of flavonoids was measured in three separate tests: ABTS, DPPH, and ferric ion reducing antioxidant power (FRAP) assays (ABTS, DPPH, and FRAP reagents from Sigma-Aldrich). All tested compounds were dissolved in DMSO. All determinations were performed in triplicate. Standard curves were prepared for all assays using different concentrations of Trolox (6-hydroxy-2,5,7,8-tetramethylchroman-2-carboxylic acid) (Sigma-Aldrich). Trolox is a water-soluble analogue of vitamin E with high antioxidant activity, commonly used as a control and a reference in studies of antioxidant activity. The results were expressed as the equivalent of μmol Trolox per μmol of the test compound. The absorbance was measured using a UV-2401 PC spectrophotometer (Shimadzu, Kyoto, Japan). Concentrations of the tested samples were in the range from 50 µg/mL to 10 mg/mL.
The FRAP method is based on measuring the ability of antioxidants to reduce ferric 2,4,6-tris(2-pyridyl)-1,3,5-triazine [Fe(III)-TPTZ] in the blue colored ferrous form, which absorbs light at λ = 593 nm. The Fe(III)-TPTZ reagent was prepared as a mixture of acetate buffer (pH 3.6), 10 mM TPTZ in 40 mM HCl, and 20 mM FeCl3 in the ratio of 10:1:1 (v/v/v). The FRAP reagent was freshly prepared before each experiment. The samples (0.1 mL) were mixed in polystyrene cuvettes with 3 mL of ferric complex and 0.9 mL of distilled water. The absorbance was measured after 10 min at λ = 593 nm.

MCF7 (breast carcinoma) = assay: Antiproliferative activity in vitro, SRB assay; assay type: cell-based, human; conditions: Homo sapiens, MCF7; 72 h exposure, SRB; read-out: IC50 ± SD MCF7
Procedure: (§2) The antiproliferative studies were performed in vitro using human cancer cell lines—MV-4-11 (biphenotypic B myelomonocytic leukemia), MCF7 (breast carcinoma), LoVo (colon cancer), LoVo/DX (colon cancer doxorubicin-resistant), and DU 145 (prostate cancer)—and normal human cell lines—MCF 10A (breast cells) and HLMEC (lung microvascular endothelial cells). The cell lines MV-4-11, LoVo, DU 145, and MCF 10A were obtained from the American Type Culture Collection (Rockville, Maryland, USA), MCF7 from the European Collection of Authenticated Cell Cultures (ECACC, Salisbury, UK), LoVo/DX courtesy of Professor E. Borowski (Technical University of Gdansk, Poland), and HLMECs (which had been already immortalized by transfection with pSV3-neoplasmid containing large T-antigen gene) were the kind gift of Professor Claudine Kieda (Center for Molecular Biophysics, Orleans, France). The cell lines are being maintained in the Hirszfeld Institute of Immunology and Experimental Therapy, Polish Academy of Sciences (HIIET, PAS), Wroclaw, Poland. All cell lines were grown at 37 °C with 5% CO2 humidified atmosphere. The MV-4-11 cells were cultured in RPMI 1640 medium with GlutaMAX (Gibco, Scotland, UK), supplemented with 1 mM sodium pyruvate and 10% fetal bovine serum (both from Sigma-Aldrich, Poznan, Poland). The MCF7 cells were cultured in Eagle medium (HIIET, PAS, Wroclaw, Poland) supplemented with 2 mM L-glutamine, 10% fetal bovine serum, 1% nonessential amino acid solution, and 0.8 mg/L of insulin (all from Sigma-Aldrich, Poznan, Poland). The LoVo and LoVo/DX cells were cultured in a 1:1 (v/v) mixture of RPMI 1640 and Opti-MEM (both HIIET, PAS, Wroclaw, Poland), supplemented with 1 mM sodium pyruvate, 2 mM L-glutamine, and 5% fetal bovine serum (all from Sigma-Aldrich, Poznan, Poland). For LoVo/DX cells, additionally 10 µg/100 mL of doxorubicin (Accord Healthcare) was added to the medium. DU 145 cells were cultured in Eagle medium (HIIET, PAS, Wroclaw, Poland) supplemented with 1 mM sodium pyruvate, 4 mM L-glutamine, and 10% fetal bovine serum (all from Sigma-Aldrich, Poznan, Poland). The MCF 10A cells were cultured in the F-12 nutrient mixture (Gibco, Scotland, UK), supplemented with 5% horse serum (Gibco, Scotland, UK), 0.05 μg/mL of cholera toxin (Vibrio cholerae), 0.5 μg/mL of hydrocortisone, 10 μg/mL of insulin, and 20 ng/mL of human epidermal growth factor (all from Sigma-Aldrich, Poznan, Poland). The HLMEC cells were cultured in the RPMI 1640 medium (HIIET, PAS, Wroclaw, Poland) with the addition of 2 mM L-glutamine (Sigma-Aldrich, Poznan, Poland) and 10% fetal bovine serum (GE Healthcare). All culture media were supplemented with 100 units/mL penicillin (Polfa Tarchomin S.A., Warsaw, Poland) and 100 µg/mL streptomycin (Sigma-Aldrich, Poznan, Poland). Twenty-four hours before addition of the tested agents, the cells were plated in 96-well plates (Sarstedt, Germany) at a density of 1 × 10^4 (1 × 10^3 for HLMEC and 0.75 × 10^4 for MCF7) cells per well in 100 μL of culture medium.
(§3) Tested compounds were dissolved in DMSO and then diluted in a 1:1 (v/v) mixture of RPMI 1640 (HIIET, PAS, Wroclaw, Poland) and Opti-MEM (Gibco, Scotland, UK) medium supplemented with 2 mM L-glutamine (Sigma-Aldrich, Poznan, Poland), 5% fetal bovine serum (GE Healthcare), 100 units/mL penicillin (Polfa Tarchomin S.A., Warsaw, Poland), and 100 µg/mL streptomycin (Sigma-Aldrich, Poznan, Poland). The antiproliferative effects of the flavonoids were examined after 72 h of exposure of the cultured cells to varying concentrations of the tested agents (from 0.1 to 100 μg/mL) using the MTT (for MV-4-11 cells) or SRB assay described below. Cisplatin (chemotherapy drug used to treat a number of cancers) was used as a positive control. The results are presented as an inhibitory concentration 50 (IC50), which is the concentration of the tested agent that inhibits proliferation of the cell population by 50%. IC50 values for each experiment were calculated separately. […]

[2] = test system: HLMEC (lung microvascular endothelial cells); assay: Antiproliferative activity in vitro, SRB assay; assay type: cell-based, human; conditions: Homo sapiens, Endothelial cell; 72 h exposure, SRB; normal cell line; read-out: IC50 ± SD HLMEC
Procedure: as §2, §3

MCF 10A (breast cells) = assay: Antiproliferative activity in vitro, SRB assay; assay type: cell-based, human; conditions: Homo sapiens, MCF-10A; 72 h exposure, SRB; normal cell line; read-out: IC50 ± SD MCF 10A
Procedure: as §2, §3

LoVo (colon cancer) = assay: Antiproliferative activity in vitro, SRB assay; assay type: cell-based, human; conditions: 72 h exposure, SRB, read-out: IC50 ± SD LoVo
Procedure: as §2, §3

[3] = DPPH free radical scavenging activity assay; conditions: 10 min, 517 nm; mean ± SD
Procedure: as §1
The DPPH (2,2-diphenyl-1-picrylhydrazyl) radical scavenging activity of samples was determined according to the method described by Yen and Chen with some modifications. Samples (0.1 mL) of known concentration were mixed in polystyrene cuvettes with 2 mL of 0.04 mM DPPH in ethanol and 0.4 mL of ethanol. The absorbance was measured after 10 min at λ = 517 nm. The DPPH reagent was freshly prepared before each experiment.

[4] = ABTS radical cation decolorization assay; conditions: 6 min incubation, 734 nm; mean ± SD
Procedure: as §1
The radical cation scavenging capacity of the tested compounds was examined against ABTS^+ (2,2’-azino-bis(3-ethylbenzo-thiazoline-6-sulfonic acid) according to the procedure described by Re et al. with some modifications. The test sample (30 μL) of known concentration was mixed in a polystyrene cuvette with 3 mL of ABTS solution with a measured absorption of 0.700 at a wavelength of λ = 734 nm. After 6 min of incubation, the absorption of samples was recorded. The ABTS reagent was freshly prepared before each experiment.

DU 145 (prostate cancer) = assay: Antiproliferative activity in vitro, SRB assay; assay type: cell-based, human; conditions: Homo sapiens, DU-145; 72 h exposure, SRB; read-out: IC50 ± SD DU 145
[5] = test system: MV-4-11 (biphenotypic B myelomonocytic leukemia); assay: Antiproliferative activity in vitro, MTT assay; assay type: cell-based, human; conditions: Homo sapiens, MV4-11, 72 h exposure, read-out: IC50 ± SD MV-4-11
[6] = test system: LoVo/DX (colon cancer doxorubicin-resistant); assay: Antiproliferative activity in vitro, SRB assay; assay type: cell-based, human; conditions: Homo sapiens, LoVo/DX, 72 h exposure, read-out: IC50 ± SD LoVo/DX
[7] = Stability of flavonoids in DMSO (control), HPLC; assay type: physicochemical; conditions: 3 h of incubation
Procedure: (§4) Flavonoids were dissolved (as described in Section 2.4) to the concentration of 100 µg/mL. The solutions corresponding to the solutions before the administration to the cell cultures were incubated in 96-well plates for 3 h and transferred to microtubes containing 400 µL of cold methanol (−20 °C) and kept at −20 °C for 1 h. After centrifugation at 12,000× g for 10 min, samples were analyzed by HPLC. Control experiments were also carried out to determine the stability of flavonoids in DMSO under analogous conditions.

[8] = Stability of flavonoids before administration to the cell cultures (diluted in RPMI 1640/Opti-MEM medium), HPLC; assay type: physicochemical; conditions: 100 µg/mL, medium with 2 mM L-glutamine, 5% fetal bovine serum, penicillin, streptomycin; 3 h incubation
Procedure: Tested compounds were dissolved in DMSO and then diluted in a 1:1 (v/v) mixture of RPMI 1640 (HIIET, PAS, Wroclaw, Poland) and Opti-MEM (Gibco, Scotland, UK) medium supplemented with 2 mM L-glutamine (Sigma-Aldrich, Poznan, Poland), 5% fetal bovine serum (GE Healthcare), 100 units/mL penicillin (Polfa Tarchomin S.A., Warsaw, Poland), and 100 µg/mL streptomycin (Sigma-Aldrich, Poznan, Poland). The antiproliferative effects of the flavonoids were examined after 72 h of exposure of the cultured cells to varying concentrations of the tested agents (from 0.1 to 100 μg/mL) using the MTT (for MV-4-11 cells) or SRB assay described below. Cisplatin (chemotherapy drug used to treat a number of cancers) was used as a positive control. The results are presented as an inhibitory concentration 50 (IC50), which is the concentration of the tested agent that inhibits proliferation of the cell population by 50%. IC50 values for each experiment were calculated separately.
as §4

| Compound | TEAC FRAP [1] | IC50 (MCF7 (breast carcinoma)) [µM] | IC50 [2] [µM] | IC50 (MCF 10A (breast cells)) [µM] | IC50 (LoVo (colon cancer)) [µM] | IC50 (LoVo (colon cancer); Homo sapiens, LoVo, 72 h) [µM] | TEAC DPPH [3] | TEAC ABTS [4] | IC50 (DU 145 (prostate cancer)) [µM] | IC50 [5] [µM] | IC50 [6] [µM] | compound observed after incubation in DMSO [7] | stability after dilution with 1:1 RPMI 1640/Opti-MEM medium [8] |
| --- | --- | --- | --- | --- | --- | --- | --- | --- | --- | --- | --- | --- | --- |
| O=c1cc(-c2ccc(O)c(O)c2)oc2cc(O)cc(O)c12 [Compound 3, luteolin] | 17.686 ± 0.327 µmol trolox per µmol of tested | 25.5 ± 6.33 | 9.22 ± 0.64 | 33.1 ± 10.3 | 13.5 ± 0.65 | 14 to 15 | 10.50 ± 0.117 µmol trolox per µmol of tested | 16.645 ± 0.897 µmol trolox per µmol of tested | 21.9 ± 6.11 | 8.73 ± 2.23 | 13.7 ± 1.65 |  |  |
| O=C1C[C@@H](c2ccccc2)Oc2cc(O)cc(O)c21 [Compound 5, Pinocembrin] |  | 148 ± 6.57 | 96.6 ± 7.23 | 125 ± 5.77 |  | 116 ± 10.6 | 0.005 ± 0.001 µmol trolox per µmol of tested | 0.165 ± 0.009 µmol trolox per µmol of tested | 119 ± 22.4 | 99.1 ± 34.1 | 67 ± 15.8 |  |  |
| COc1ccc([C@@H]2CC(=O)c3c(O)cc(O)cc3O2)cc1O [Compound 8, hesperetin] | 4.025 ± 0.175 µmol trolox per µmol of tested | 167 ± 13.1 | 98.3 ± 7.62 | 207 ± 23.4 |  | 104 ± 5.55 | 0.098 ± 0.002 µmol trolox per µmol of tested | 13.254 ± 0.123 µmol trolox per µmol of tested | 215 ± 32.1 | 140 ± 12.9 | 77.2 ± 19.4 |  |  |
| O=C1C[C@@H](c2ccc(O)cc2)Oc2c(O)c(O)cc(O)c21 [Compound 14, 8-hydroxynaringenin] |  |  |  |  |  |  |  |  |  |  |  | over 99% | complete decomposition |
| O=C1C[C@@H](c2ccc(O)cc2)Oc2cc(O)c(O)c(O)c21 [Compound 15, 6-hydroxynaringenin] |  |  |  |  |  |  |  |  |  |  |  | over 99% | complete decomposition |
